Test results taken from the NIST ThermoML archive (doi:10.1016/j.jct.2008.12.018).
Numbers after ± are expanded uncertainties.

Test: activity coefficient (dimensionless); of the first substance listed, at infinite dilution; xn = mol fraction of the nth substance listed
Details: Liquid, Chromatography, x1 = 0

Compound `O` [water] + CCCCn1cc[n+](C)c1.N#C[S-] has an activity coefficient (328.15 K) of 0.316 ± 0.035, an activity coefficient (338.15 K) of 0.316 ± 0.035 and an activity coefficient (348.15 K) of 0.32 ± 0.035. It also gave an activity coefficient (358.15 K) of 0.323 ± 0.035 and an activity coefficient (368.15 K) of 0.325 ± 0.035.
